Measurements taken from patent publication US4812458A, “6,7-disubstituted-2,3-dihydroxyquinoxaline compounds, pharmaceutical compositions thereof, and their use as neuroleptics” (A/S Ferrosan, priority 1987, dated 1989).
Converted amounts (≈) assume the structure as drawn.

Legend:
[1] = biological target: quisqualate type receptors (rat cerebral cortical membrane homogenate); assay: 3H-AMPA binding (displacement of 3H-AMPA from the quisqualate type receptors); details: displacement of 50% of specific 3H-AMPA binding; 5 nM 3H-AMPA, 0° C., 30 min, pH 7.1
Method: (§1) The pharmacological properties of the compounds of the present invention can be illustrated by determining their capability for displacing radioactively labelled 2-amino-3-hydroxy-5-methyl-4-isoxazolepropionic acid (AMPA) from the quisqualate type receptors.
The displacement activity of the compounds may be shown by determining the IC50 value which represents the concentration (μg/ml) which causes a displacement of 50% of the specific binding of ^3 H-AMPA.
500 μl of thawed rat cerebal cortical membrane homogenate in Tris-HCl (30 mM), CaCl2 (2.5 mM) and KSCN ([…]) pH 7.1 were incubated at 0° C. for 30 min. with 25 μl ^3 H-AMPA (5 nM final concentration) and the test compound and buffer. Nonspecific binding was determined by incubation with L-glutamic acid (600 μM final concentration). The binding reaction was terminated by adding 5 ml of ice-cold buffer followed by filtration through Whatman GF/C glass fibre filters and 2×5 ml wash with ice-cold buffer. Bound radioactivity was measured by scintillation counting. IC50 was determined by Hill analysis of at least four concentrations of test compound.

[2] = system: quisqualic acid stimulated Na+-efflux from rat striatal slices; assay: Antagonism of quisqualic acid induced 22Na+-release; assay type: cell-based; details: concentration reducing quisqualic acid (2 μg/ml) stimulated 22Na+ efflux rate by 50%
Method: as §1
The antagonism is measured by determining the EC50 value which represents the concentration which reduces the rate of quisqualic acid stimulated sodium efflux by 50%.
Antagonism of quisqualic acid induced ^22 Na^+ -release
Slices from rat striatum were preincubated with ^22 Na^+ for 30 min. After the ^22 Na^+ loading period, the slices were successively and every minute transferred through a series of tubes, each containing 1.5 ml of a non-radioactive physiological solution saturated with O2, with the help of a basket shaped sieve. Quisqualic acid (2 μg/ml) was present in the last 5 tubes and the compound to be tested was present in the same 5 tubes plus 3 tubes before. The amount of radioactivity in each washout tube as well as that left in the slices at the end of the experiment was measured by scintillation counting. EC50 -values were calculated by Hill analysis from at least three different concentrations of test compound as the concentration of test compound which reduces the efflux rate of ^22 Na^+ -ions to 50% of the efflux rate in the absence of test compound.

| SMILES | IC50 [1] | EC50 [2] |
| --- | --- | --- |
| N#Cc1cc2nc(O)c(O)nc2cc1C(F)(F)F [Example 5, 6-Cyano-2,3-dihydroxy-7-trifluoromethylquinoxaline] | 0.39 µg/mL (≈ 1.53 µM) | – |
| N#Cc1cc2nc(O)c(O)nc2cc1Cl [Example 8, 6-Chloro-7-cyano-2,3-dihydroxyquinoxaline] | 0.82 µg/mL (≈ 3.7 µM) | – |

The remaining lines, values ahead:

| IC50 [1] | EC50 [2] | SMILES |
| --- | --- | --- |
| 0.06 µg/mL (≈ 0.258 µM) | 0.7 µg/mL (≈ 3.02 µM) | N#Cc1cc2nc(O)c(O)nc2cc1[N+](=O)[O-] [Example 2, 6-Cyano-2,3-dihydroxy-7-nitroquinoxaline] |
| 0.26 µg/mL (≈ 1.05 µM) | 3 µg/mL (≈ 12.1 µM) | [N-]=[N+]=Nc1cc2nc(O)c(O)nc2cc1[N+](=O)[O-] [Example 3, 6-Azido-2,3-dihydroxy-7-nitroquinoxaline] |
| 0.43 µg/mL (≈ 1.78 µM) | 3 µg/mL (≈ 12.4 µM) | O=[N+]([O-])c1cc2nc(O)c(O)nc2cc1Cl [Example 7, 6-Chloro-2,3-dihydroxy-7-nitroquinoxaline] |
